As a reminder, the EC50 is the concentration needed to bring the measured effect to its halfway point.

Values after ≈ are worked out from the molar mass of the structure shown. Values joined by “and” are separate entries in the source; they are usually repeats but may differ in a detail not shown here. Identical values can stand only once.

One test concerns E. polygoni. Description: In-vivo greenhouse control of marrow bean powdery mildew. How it is done:
(§1) 3.88 g of 3-(3',4'-methylenedioxy phenyl)-N-n-propyl acrylamide was weighed and dissolved in 25 g of absolute ethyl alcohol, then 6 g of emulsifier 0203B was added, and mixed uniformly with stirring to get 10% of 3-(3',4'-methylenedioxy phenyl)-N-n-propyl acrylamide EC.
(§2) 5.61 g of 3-(3',4'-methylenedioxy phenyl)-piperidine acrylate was weighed and dissolved in 25 g of absolute ethyl alcohol, then 6 g of emulsifier 0203B was added, and mixed uniformly with stirring to get 14% of 3-(3',4'-methylenedioxy phenyl)-piperidine acrylate EC.
Marrow bean (Variety: Thailand Jiadouwang) was cultured in pots in a greenhouse, and inoculated with E. polygoni at the stage of 4 leaves. The first application was started at the early onset (onset at the first true leaf: first appearance of spots), comprising 10% of 3-(3',4'-methylenedioxy phenyl)-N-n-propyl acrylamide EC and 14% of 3-(3',4'-methylenedioxy phenyl)-piperidine acrylate EC, which were both diluted at three concentrations of 0.20, 0.143, 0.10 mg/mL (active ingredients), the control agent, 12.5% of myclobutanil EC (North China pharmaceutical Group, Ainuo Co. Ltd.), was also diluted at three concentrations of 0.20, 0.143, 0.10 mg/mL (active ingredients), additionally clear water was used as the control. Both sides of the leaves were sprayed evenly with a small hand-held sprayer so that the leaves were wetted by the liquor without loss. Applications were conducted every 7 days consecutively for 4 times. 10 days after the fourth application, the number of sick leaves at each grade of powdery mildew was investigated for the whole plant following the grading standard of 9 grades, to calculate the disease index and the control effect.

Test [1] has as its system Blumeria graminis f.sp.tritici. In words: In-vivo greenhouse control of wheat powdery mildew. Conditions: winter wheat, 0.20 mg/mL (active ingredients), application from early onset. How it is done:
as §1, §2
Winter wheat (Variety: Huixian Red) was sown in pots in a greenhouse, and inoculated with a fresh spore suspension of Blumeria graminis f.sp.tritici by spraying on its leaves and stems at the stage of 2 leaves. The first application was started at the early onset of powdery mildew. Both sides of the leaves were sprayed evenly with a small hand-held sprayer so that the leaves were wetted by the liquor without loss. 10% of 3-(3',4'-methylenedioxy phenyl)-N-n-propyl acrylamide EC and 14% of 3-(3',4'-methylenedioxy phenyl)-piperidine acrylate EC were both diluted at two concentrations of 0.20 and 0.143 mg/mL (active ingredients), and the control agent, 15% of triazolone WP, was also diluted at two concentrations of 0.20 and 0.143 mg/mL (active ingredients), additionally clear water was used as the control. […]

In another test the test system is Oidium lini. In words: Field efficiency test, flax powdery mildew. The following applies: 0.50 mg/mL (active ingredients). The format is in vivo. As to the method: (§3) The formulation of emulsifiable concentrate is the same as that in Embodiment 3.
The variety of flax is Zhangya No. 2. 10% of 3-(3',4'-methylenedioxy phenyl)-N-n-propyl acrylamide EC and 14% of 3-(3',4'-methylenedioxy phenyl)-piperidine acrylate EC were both diluted at a concentration of 0.50 mg/mL (active ingredients); the control agent, 430 g/L of tebuconazole SC, was also diluted at a concentration of 0.50 mg/mL (active ingredients); additionally clear water was used as the control. The first application was started at the first appearance of spots for flax powdery mildew (Oidium lini) (natural incidence), and the second application was carried out 10 days later. The instrument for application was a WS-18D knapsack electric sprayer, which employed a cone nozzle. Each agent was formulated into the desired concentrations according to the usage amount of the control clear water. Both sides of the leaves were sprayed evenly. 10 days after the second application, the number of sick leaves at each grade of powdery mildew was investigated for the whole plant following the grading standard of 9 grades, to calculate the disease index and the control effect.

The test system of test [2] is Erysiphe cucurbitacearum or Sphaerotheca cucurbitae. In words: In-vivo greenhouse control of zucchini powdery mildew. How it is done:
as §1, §2
Zucchini (Variety: Wuwei Xianglin extra-early 1st generation) was cultured in pots in a greenhouse, and inoculated with Erysiphe cucurbitacearum or Sphaerotheca cucurbitae at the stage of 3 to 4 leaves. The first application was started at the early onset (onset at the first true leaf: first appearance of spots), comprising 10% of 3-(3',4'-methylenedioxy phenyl)-N-n-propyl acrylamide EC and 14% of 3-(3',4'-methylenedioxy phenyl)-piperidine acrylate EC, which were both diluted at four concentrations of 0.50, 0.333, 0.25, 0.20 mg/mL (active ingredients), additionally clear water was used as the control. Both sides of the leaves were sprayed evenly with a small hand-held sprayer so that the leaves were wetted by the liquor without loss. Applications were conducted every 7 days consecutively for 4 times. 10 days after the fourth application, the number of sick leaves at each grade of powdery mildew was investigated for the whole plant following the grading standard of 9 grades, to calculate the disease index and the control effect. The computational formula is as below: Disease index = [(Number of sick leaves at each grade×Corresponding grade value)/(Total number of investigated leaves×9)] × 100; [formula] Control effect = (Disease index of the clear water control−Treated disease index)/Disease index of the clear water control × 100. [formula]

A further test relates to Fusarium graminearum. In words: microbe, parasite or virus in culture. The following applies: for EC50: median inhibition concentration. Format: cell-based.
Another test has as its system L.taurica. In words: Field efficiency test, tomato powdery mildew. The format is in vivo. Conditions: solar greenhouse. As to the method: as §3
Tomatoes (Variety: Song Tian Fen Yang Yang) were planted in a solar greenhouse. 14% of 3-(3',4'-methylenedioxy phenyl)-piperidine acrylate EC was diluted at four concentrations of 1.00, 0.80, 0.667 and 0.50 mg/mL (active ingredients); the control agent, 72% cream urea·manganese zinc WP was diluted at a concentration of 1.00 mg/mL (active ingredients); additionally clear water was used as the control. The first application was started before the onset of L.taurica. The instrument for application was a WS-18D knapsack electric sprayer, which employed a cone nozzle. Each agent was formulated into the desired concentrations according to the usage amount of the control clear water. Both sides of the tomato leaves were sprayed evenly. Thereafter, applications were conducted every 7 days consecutively for 4 times. 10 days after the fourth application, the number of sick leaves at each grade of powdery mildew was investigated following the grading standard of 9 grades, to calculate the disease index and the control effect.

The mark [3] stands for this setting: 0.10 mg/mL (active ingredients).
[4] abbreviates: 0.143 mg/mL (active ingredients).
[5] abbreviates: 0.20 mg/mL (active ingredients).
The mark [6] stands for this setting: 0.333 mg/mL (active ingredients).
[7] abbreviates: 0.50 mg/mL (active ingredients), spray every 7 days, 4 times.

Consider `CCCNC(=O)/C=C/c1ccc2c(c1)OCO2` [3-(3',4'-methylenedioxyphenyl)-N-n-propyl acrylamide], for which the “Control Effect” value with E. polygoni (setting [3]) is recorded as 84.19%; with E. polygoni (setting [4]), 92.58%; with E. polygoni (setting [5]) it was 93.53%; in test [1] it was 86.97%; in the test on Oidium lini it was 83.70%; in test [2] (setting [6]), 77.13%. The “Control Effect” value in test [2] (setting [7]) is 91.09%.
For `O=C(/C=C/c1ccc2c(c1)OCO2)N1CCCCC1` [3-(3',4'-methylenedioxyphenyl)-piperidine acrylate], the “Relative Toxicity (Compared to Chlorothalonil)” value in the test on Fusarium graminearum (EC50 of chlorothalonil / EC50 of agent) was found to be 5.89. Further, in the test on Fusarium graminearum (EC50 of procymidone / EC50 of agent), the “Relative Toxicity (Compared to Procymidone)” value amounted to 1.80. For the same molecule, the EC50 in the test on Fusarium graminearum was found to be 80 mg/L (≈ 309 µM); in the test with Fusarium graminearum (listed as 66#), 79.6 mg/L (≈ 307 µM). The “Control Effect” value with E. polygoni (setting [3]) is recorded as 74.97%; with E. polygoni (setting [4]), 89.40%; in the test with E. polygoni (setting [5]) it was 91.55%; in test [1] it was 59.11%; in the test with Oidium lini it was 41.82%; in the test with L.taurica (0.50 mg/mL), 81.68%. In addition, the “Control Effect” value with L.taurica (0.667 mg/mL) was 88.19%; in the test with L.taurica (0.80 mg/mL) it was 90.36%; in the test with L.taurica (1.00 mg/mL), 97.85%; in test [2] (setting [6]) it was 67.06%; in test [2] (setting [7]), 67.06% and 87.13%.
